Data: patent US20240262803A1, “COMPOUNDS, COMPOSITIONS AND METHODS OF TREATING DISORDERS” (Chungdu Anticancer Bioscience Ltd, priority 2021, published 2024)
“Also recorded” adds a separate entry of the source.

Columns and labels:
[1] = tested on: lung cancer cell line NCI-H23; assay: Minimal effective concentration that elicits polyploidy, NCI-H23; format: cell-based; conditions: Homo sapiens, read-out: MECP: Minimal effective concentration that elicits polyploidy
[2] = tested on: human lung cancer cell line NCI-H23; assay: Soft agar colony formation assay, NCI-H23; format: cell-based; conditions: NCI-H23, 3D culture, FIG. 2
Description: (§1) Six lung cancer cell lines (NCI-H23, NCI-H460, NCI-H596, NCI-H2170, Calu-6 and A549), two colon cancer cell lines (HCT116 and SW460), one breast cancer cell line MDA-MB-231, one gastric cancer cell line NCI-N87, one prostate cancer cell line DU145, one cervical cancer cell line Hela, and one glioblastoma cell line T98G were obtained from ATCC. The T2 HCC cell line was derived from a mouse liver cancer model initiated by a transgene of MYC (Reference). All cell lines were cultured in DMEM (Gibco, Cleveland, TN, USA) supplemented with 5% fetal bovine serum (Gibco), penicillin (100 U/mL)-streptomycin (100 μg/mL) (Gibco, Cat. No. 15140-122), 2 mM L-glutamine (Gibco, 200 mM solution, Cat. No. 25030081), and 1 mM sodium pyruvate (Gibco, 100 mM solution, Cat. No. 11360070) at 37° C. in a humidified incubator that was maintained at 5% CO2.
(§2) Measuring the ability of cells to grow in soft agar has been popularly believed as the gold standard assay for cellular transformation in vitro. In the Soft Agar Assay, cells grow from single cells to cell colonies in a semi-solid agar solution that keeps them away from the solid surface and allows growth in an anchorage-independent way.
The anchorage-independent growth of cells is one of the hallmarks of cancer cells. Normal epithelial cells are supported by basement membranes that provide survival and proliferative signals while undergo a type of apoptosis called anoikis when lose their attachment to the extracellular matrix. Cancer cells, in contrast, evade attachment-induced apoptosis, leading to uncontrolled proliferation and metastasis. The Soft Agar Colony Formation Assay allows testing of the therapeutic efficacy of compounds against anchorage-independent 3D growth of cancer cells in vitro. The assay was performed in 6-well plates with two layers of agar. For the first, 0.75% agar in DMEM medium was melted in a microwave oven and poured to form a bottom layer. […] Cell culture medium was changed once every two days until colonies were ready to photograph. […]

[3] = tested on: lung cancer cell line NCI-H596; assay: MTT assay of cellular proliferation, NCI-H596; format: cell-based; conditions: Homo sapiens, read-out: EC50: Concentration that inhibits 50% of proliferation
Description: as §1
(§3) The MTT assay measures cellular metabolic activity as a proxy for cell viability and involves the conversion of the water-soluble yellow dye MTT [3-(4,5-dimethylthiazol-2-yl)-2,5-diphenyltetrazolium bromide] into an insoluble purple formazan by the action of mitochondrial reductase. Formazan is then solubilized and its concentration is determined by measuring the optical density (OD) value at a wavelength of 570 nm. The value is in proportional to the number of live cells with excellent linearity up to ˜10^6 cells per well. The MTT assay was used to determine the EC50 value, the concentration of a compound that leads to 50% inhibition of cellular proliferation. Briefly, cells were split when growing to the mid-Log phase. Cells in 100 μL of culture medium were seeded into each well of 96-well microplates and cultivated for 15˜24 hours to reach a confluence of 20˜30% and were then exposed to drugs at concentrations ranging from 1 nM to 10 μM. At the endpoint, 20 μL of a MTT stock solution in DMSO (5 mg/mL) was added to each well that contains […] of DMEM. The microplates were left in the cell culture incubator for 3˜4 h before subjected to solubilization and determination of formazan at A570 in a microplate reader (BioTek ELX808iu). […] Therefore, these compounds might hold a broad utility in the treatment of a large variety of human malignancies.

[4] = tested on: colon cancer cell line HCT116; assay: Minimal effective concentration that elicits polyploidy, HCT116; format: cell-based; conditions: Homo sapiens, HCT-116, read-out: MECP: Minimal effective concentration that elicits polyploidy
[5] = tested on: lung cancer cell line NCI-H460; assay: MTT assay of cellular proliferation, NCI-H460; format: cell-based; conditions: Homo sapiens, read-out: EC50: Concentration that inhibits 50% of proliferation
Description: as §1, §3

RPEMYC^H2B-GFP cells = assay: Mechanism-informed phenotypic screening assay (mitotic arrest, polyploidy; GE IN-Cell Analyzer 2000); format: cell-based; conditions: 20 nM to 20 μM, 24, 48 or 72 hours, read-out: Mitotic Arrest (≥5%)
[6] = tested on: prostate cancer cell line DU145; assay: Minimal effective concentration that elicits polyploidy, DU145; format: cell-based, human
[7] = tested on: breast cancer cell line MDA-MB-231; assay: MTT assay of cellular proliferation, MDA-MB-231; format: cell-based; conditions: Homo sapiens, read-out: EC50: Concentration that inhibits 50% of proliferation
Summary of the method: (§4)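 DMEM/5% FBS, 37 °C, 5% CO2; seed, 15˜24 h to 20˜30% confluence; compound 1 nM–10 μM; MTT 3˜4 h at endpoint; solubilize, OD570; EC50 = 50% growth inhibition.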

[8] = tested on: lung cancer cell line Calu-6; assay: MTT assay of cellular proliferation, Calu-6; format: cell-based; conditions: Homo sapiens, read-out: EC50: Concentration that inhibits 50% of proliferation
Description: as §1, §3

[9] = tested on: cervical cancer cell line Hela; assay: Soft agar colony formation assay, Hela; format: cell-based, human; conditions: 3D culture, FIG. 2
Description: as §1, §2
The anchorage-independent growth of cells is one of the hallmarks of cancer cells. […] Cell culture medium was changed once every two days until colonies were ready to photograph. […]

[10] = tested on: lung cancer cell line NCI-H2170; assay: Minimal effective concentration that elicits polyploidy, NCI-H2170; format: cell-based, human
SW480 = assay: Minimal effective concentration that elicits polyploidy, SW480; format: cell-based; conditions: Homo sapiens, read-out: MECP: Minimal effective concentration that elicits polyploidy
[11] = tested on: colon cancer cell line SW460; assay: MTT assay of cellular proliferation, SW460; format: cell-based; conditions: Homo sapiens, SW480; read-out: EC50: Concentration that inhibits 50% of proliferation
Summary of the method: as §4

SMILES | minimal effective concentration [1] | anchorage-independent growth in soft agar [2] | EC50 [3] | minimal effective concentration [4] | EC50 [5] | minimal effective concentration (RPEMYC^H2B-GFP cells) | MECP: Minimal effective concentration that elicits polyploidy [6] | EC50 [7] | EC50 [8] | anchorage-independent growth in soft agar [9] | MECP: Minimal effective concentration that elicits polyploidy [10] | minimal effective concentration (SW480) | EC50 [11]
COC(=O)c1cc(Oc2ncccc2-c2ccncc2)cc(C(=O)OC)c1 [Compound 1, Dimethyl 5-([3,4′-bipyridin]-2-yloxy)isophthalate] | 0.001 to 1 µM | completely blocked the growth | 10000 to 30000 nM | 0.001 to 1 µM | 10000 to 30000 nM | 1 µM | A (A: 1 nM < conc. ≤ 1 μM) | 1 to 1000 nM | 1 to 1000 nM | Suppress the Anchorage-independent Growth; also recorded: effectively suppressed the anchorage-independent growth | A (A: 1 nM < conc. ≤ 1 μM) | – | –
COC(=O)c1cc(OC)cc(Oc2ncccc2-c2ccncc2)c1 [Compound 2, Methyl 3-([3,4′-bipyridin]-2-yloxy)-5-methoxybenzoate] | 0.001 to 1 µM | Suppresses the Anchorage-independent Growth; also recorded: completely blocked the growth | 1 to 1000 nM | 0.001 to 1 µM | 10000 to 30000 nM | 1 µM | A (A: 1 nM < conc. ≤ 1 μM) | 1 to 1000 nM | 1 to 1000 nM | – | A (A: 1 nM < conc. ≤ 1 μM) | 0.001 to 1 µM | 1 to 1000 nM
COC(=O)c1cc(Oc2ncccc2-c2ccnc(N)n2)cc(C(=O)OC)c1 [Compound 21, dimethyl 5-((3-(2-aminopyrimidin-4-yl)pyridin-2-yl)oxy)isophthalate] | 0.001 to 1 µM | – | 1000 to 10000 nM | 0.001 to 1 µM | 10000 to 30000 nM | 1 µM | A (A: 1 nM < conc. ≤ 1 μM) | 1 to 1000 nM | 1 to 1000 nM | Suppress the Anchorage-independent Growth; also recorded: effectively suppressed the anchorage-independent growth | A (A: 1 nM < conc. ≤ 1 μM) | – | –
COC(=O)c1cc(OC)cc(Oc2ncccc2-c2ccnc(N)n2)c1 [Compound 23, Methyl 3-((3-(2-aminopyrimidin-4-yl)pyridin-2-yl)oxy)-5-methoxybenzoate] | 0.001 to 1 µM | Suppress the Anchorage-independent Growth; also recorded: completely blocked the growth | 1 to 1000 nM | 0.001 to 1 µM | 10000 to 30000 nM | 1 µM | A (A: 1 nM < conc. ≤ 1 μM) | 1 to 1000 nM | 1 to 1000 nM | – | A (A: 1 nM < conc. ≤ 1 μM) | 0.001 to 1 µM | 1 to 1000 nM
